From patent US9801901B2, “Alginate oligomers for use in overcoming multidrug resistance in bacteria” (priority 2009, dated 2017)
In brackets after ≈: the same amount, converted by molar mass. Where two headings read alike, the source gives them in different places. Marks after values point to notes of the source that are not given here.

What was measured:
[1] = test system: Pseudomonas aeruginosa (MDR 301, PSA, V2); experiment: MIC-assay, Mueller-Hinton broth with G-block alginate, 384-well, OD600; conditions: Pseudomonas aeruginosa, Table 8, V2
[2] = test system: MDR Pseudomonas strains; experiment: MIC assay of Example 1, summary over the MDR Pseudomonas strains; type: cell-based, Pseudomonas aeruginosa
[3] = test system: V22 6056 Acinetobacter; experiment: MIC assay, CAMHB with alginate oligomer, no visible growth; type: cell-based, Acinetobacter lwoffii; conditions: Table 5, V22 MDR Acin. lwoff
[4] = test system: Burkholderia cepacia (LMG18941, ATCC-BAA-246); experiment: MIC-assay, Mueller-Hinton broth with G-block alginate, 384-well, OD600
[5] = test system: V19 non MDR Acinetobacter baumannii; experiment: MIC assay, CAMHB with M-block alginate oligomer, no visible growth; type: cell-based; conditions: Table 7, V19 non MDR Acin. baum
From the text: The study described in Example 1 was repeated with the following strains of Acinetobacter baumannii, antibiotics and M-block alginate oligomer in place of OligoG CF-5/20 as detailed in Table 7. The M-block oligomer is 100% M with a DPn of 15 to 18,

[6] = test system: Acinetobacter baumannii (Egypt, V9); experiment: MIC-assay, Mueller-Hinton broth with G-block alginate, 384-well, OD600
[7] = test system: Pseudomonas aeruginosa, Klebsiella pneumoniae and Acinetobacter baumannii strains; experiment: MIC assay of Example 1, summary over the strains; type: cell-based; conditions: Example 1, Tables 1 and 2, all strains
[8] = test system: Klebsiella pneumoniae KP05 506 from India (V3); experiment: MIC assay, CAMHB with alginate oligomer, no visible growth; type: cell-based; conditions: for MIC: V3 KP05 506
[9] = test system: PA01 Pseudomonas aeruginosa ATCC 15692; experiment: MIC assay, two-fold antibiotic dilutions in CAMHB with alginate oligomer, no visible growth; type: cell-based; conditions: PA01
[10] = test system: V12 5725 (Wales) Klebsiella pneumoniae; experiment: MIC assay, CAMHB with alginate oligomer, no visible growth; type: cell-based; conditions: Table 5, V12 MDR Kleb pneu
[11] = test system: Pseudomonas aeruginosa MDR 301 from Poland (V2); experiment: as above; type: cell-based; conditions: V2 MDR 301 PA
[12] = test system: Pseudomonas aeruginosa (R22, PSA, V1); experiment: MIC-assay, Mueller-Hinton broth with G-block alginate, 384-well, OD600
[13] = test system: Acinetobacter lwoffii (6056, V22); experiment: as above
[14] = test system: Acinetobacter lwoffii (Egypt, V10); experiment: as above
[15] = test system: Pseudomonas aeruginosa ATCC 39324, mucoid type strain (R79); experiment: MIC assay, CAMHB with alginate oligomer, no visible growth; type: cell-based; conditions: R79
[16] = test system: MDR strains of Pseudomonas aeruginosa, Klebsiella pneumoniae, Burkholderia cepacia, Acinetobacter lwoffii, Acinetobacter baumannii and E. coli; experiment: MIC assay of Example 2, summary over the strains of Tables 4, 5 and 6; type: cell-based; conditions: Example 2, Tables 4, 5 and 6
[17] = Table 9, G-block (OligoCF-5/20) 0%
[18] = Table 9, G-block (OligoCF-5/20) 2%
[19] = Table 9, G-block (OligoCF-5/20) 6%
[20] = Table 9, G-block (OligoCF-5/20) 10%

CC[C@H]1OC(=O)[C@H](C)[C@@H](O[C@H]2C[C@@](C)(OC)[C@@H](O)[C@H](C)O2)[C@H](C)[C@@H](O[C@@H]2O[C@H](C)C[C@H](N(C)C)[C@H]2O)[C@](C)(O)C[C@@H](C)CN(C)[C@H](C)[C@@H](O)[C@]1(C)O [Azithromycin]
MIC ([1]; G-block (OligoCF-5/20) 2%): 64 µg/mL (≈ 85.4 µM)
MIC ([1]; G-block (OligoCF-5/20) 6%): 64 µg/mL (≈ 85.4 µM)
MIC ([1]; G-block (OligoCF-5/20) 10%): 32 µg/mL (≈ 42.7 µM)
effectiveness when used in combination with the alginate oligomers [2]: more effective
MIC ([3]; Acinetobacter, OligoCF-5/20 0G, read-out: MIC): < 0.25 µg/mL
MIC ([3]; OligoCF-5/20 +2% G): <0.25 µg/mL
MIC ([3]; OligoCF-5/20 +6% G): <0.25 µg/mL
MIC ([3]; OligoCF-5/20 +10% G): <0.25 µg/mL
MIC ([4]; ATCCBAA246|LMG18941, Table 8, G-block (OligoCF-5/20) 0%): 64 µg/mL (≈ 85.4 µM)
MIC ([4]; ATCCBAA246|LMG18941, Table 8, G-block (OligoCF-5/20) 2%): 32 µg/mL (≈ 42.7 µM)
MIC ([4]; ATCCBAA246|LMG18941, Table 8, G-block (OligoCF-5/20) 6%): 16 µg/mL (≈ 21.4 µM)
MIC ([4]; ATCCBAA246|LMG18941, Table 8, G-block (OligoCF-5/20) 10%): 16 µg/mL (≈ 21.4 µM)
MIC ([5]; M-block oligomer 0M): 32 µg/mL (≈ 42.7 µM)
MIC ([5]; M-block oligomer +2% M): 16 µg/mL (≈ 21.4 µM)
MIC ([5]; M-block oligomer +6% M): 16 µg/mL (≈ 21.4 µM)
MIC ([5]; M-block oligomer +10% M): 16 µg/mL (≈ 21.4 µM)
MIC [6, 17]: 4 µg/mL (≈ 5.34 µM)
MIC [6, 18]: < 1 µg/mL
MIC [6, 19]: < 1 µg/mL
MIC [6, 20]: < 1 µg/mL
change of MIC with increasing amounts of OligoG CF-5/20 [7]: decreasing MICs
effectiveness in conjunction with alginate oligomers ([8]; Example 1, KP05 506): more effective
MIC ([8]; Klebsiella pneumoniae, Table 1, OligoCF-5/20 0G, read-out: MIC): 32 µg/mL (≈ 42.7 µM)
MIC ([8]; Klebsiella pneumoniae, Table 1, OligoCF-5/20 +2% G, read-out: MIC): 16 µg/mL (≈ 21.4 µM)
MIC ([8]; Klebsiella pneumoniae, Table 1, OligoCF-5/20 +6% G, read-out: MIC): 16 µg/mL (≈ 21.4 µM)
MIC ([8]; Klebsiella pneumoniae, Table 1, OligoCF-5/20 +10% G, read-out: MIC): 8 µg/mL (≈ 10.7 µM)
MIC ([8]; Table 2, OligoCF-5/20 0G): 32^†
MIC ([8]; Table 2, OligoCF-5/20 +2% G): 16^†
MIC ([8]; Table 2, OligoCF-5/20 +6% G): 16^†
MIC ([8]; Table 2, OligoCF-5/20 +10% G): 8^†
MIC ([9]; Pseudomonas aeruginosa, ATCC15692, Table 1, OligoCF-5/20 0G, read-out: MIC): 128 µg/mL (≈ 171 µM)
MIC ([9]; Pseudomonas aeruginosa, ATCC15692, Table 1, OligoCF-5/20 +2% G, read-out: MIC): 64 µg/mL (≈ 85.4 µM)
MIC ([9]; Pseudomonas aeruginosa, ATCC15692, Table 1, OligoCF-5/20 +6% G, read-out: MIC): 16 µg/mL (≈ 21.4 µM)
MIC ([9]; Pseudomonas aeruginosa, ATCC15692, Table 1, OligoCF-5/20 +10% G, read-out: MIC): 4 µg/mL (≈ 5.34 µM)
MIC ([9]; Table 2, OligoCF-5/20 0G): 128^†
MIC ([9]; Table 2, OligoCF-5/20 +2% G): 64^†
MIC ([9]; Table 2, OligoCF-5/20 +6% G): 16^†
MIC ([9]; Table 2, OligoCF-5/20 +10% G): 4^†
MIC ([10]; Klebsiella pneumoniae, OligoCF-5/20 0G, read-out: MIC): 32 µg/mL (≈ 42.7 µM)
MIC ([10]; OligoCF-5/20 +2% G): 8 µg/mL (≈ 10.7 µM)
MIC ([10]; OligoCF-5/20 +6% G): 32 µg/mL (≈ 42.7 µM)
MIC ([10]; OligoCF-5/20 +10% G): 32 µg/mL (≈ 42.7 µM)
MIC ([11]; Pseudomonas aeruginosa, Table 1, OligoCF-5/20 0G, read-out: MIC): 64 µg/mL (≈ 85.4 µM)
MIC ([11]; Pseudomonas aeruginosa, Table 1, OligoCF-5/20 +2% G, read-out: MIC): 64 µg/mL (≈ 85.4 µM)
MIC ([11]; Pseudomonas aeruginosa, Table 1, OligoCF-5/20 +6% G, read-out: MIC): 32 µg/mL (≈ 42.7 µM)
MIC ([11]; Pseudomonas aeruginosa, Table 1, OligoCF-5/20 +10% G, read-out: MIC): 16 µg/mL (≈ 21.4 µM)
MIC ([11]; Table 2, OligoCF-5/20 0G): 64^†
MIC ([11]; Table 2, OligoCF-5/20 +2% G): 64 µg/mL (≈ 85.4 µM)
MIC ([11]; Table 2, OligoCF-5/20 +6% G): 32^†
MIC ([11]; Table 2, OligoCF-5/20 +10% G): 16^†
MIC ([12]; Table 8, G-block (OligoCF-5/20) 2%): 32 µg/mL (≈ 42.7 µM)
MIC ([12]; Table 8, G-block (OligoCF-5/20) 6%): 32 µg/mL (≈ 42.7 µM)
MIC ([12]; Table 8, G-block (OligoCF-5/20) 10%): 8 µg/mL (≈ 10.7 µM)
MIC [13, 17]: < 2 µg/mL
MIC [13, 18]: < 2 µg/mL
MIC [13, 19]: < 2 µg/mL
MIC [13, 20]: < 2 µg/mL
MIC [14, 17]: < 1 µg/mL
MIC [14, 18]: < 1 µg/mL
MIC [14, 19]: < 1 µg/mL
MIC [14, 20]: < 1 µg/mL
MIC ([15]; Pseudomonas aeruginosa, ATCC39324, Table 1, OligoCF-5/20 0G, read-out: MIC): 128 µg/mL (≈ 171 µM)
MIC ([15]; Pseudomonas aeruginosa, ATCC39324, Table 1, OligoCF-5/20 +2% G, read-out: MIC): 64 µg/mL (≈ 85.4 µM)
MIC ([15]; Pseudomonas aeruginosa, ATCC39324, Table 1, OligoCF-5/20 +6% G, read-out: MIC): 16 µg/mL (≈ 21.4 µM)
MIC ([15]; Pseudomonas aeruginosa, ATCC39324, Table 1, OligoCF-5/20 +10% G, read-out: MIC): 4 µg/mL (≈ 5.34 µM)
MIC ([15]; Table 2, OligoCF-5/20 0G): 128^†
MIC ([15]; Table 2, OligoCF-5/20 +2% G): 64^†
MIC ([15]; Table 2, OligoCF-5/20 +6% G): 16^†
MIC ([15]; Table 2, OligoCF-5/20 +10% G): 4^†
change of MIC with increasing amounts of OligoG CF-5/20 [16]: decreasing MICs
